Experiments:
[1] = xn = mol fraction of the nth substance listed; conditions: 101.3 kPa, Liquid; for speed of sound: Sing-around technique in a fixed-path interferometer; for mass density: Vibrating tube method
[2] = refractive index (Na D-line) (dimensionless); xn = mol fraction of the nth substance listed; conditions: 101.3 kPa, Liquid, Standard Abbe refractometry

CCCCn1cc[n+](C)c1.COS(=O)(=O)[O-] [1-butyl-3-methylimidazolium methyl sulfate] + CC(C)O
Conditions | mass density, [1] [kg/m3] | refractive index, [2] | speed of sound, [1] [m/s]
298.15 K, x1 = 0.0482 | 835.17 | 1.38886 | 1181.2
298.15 K, x1 = 0.0965 | 880.673 | 1.40004 | 1219.7
298.15 K, x1 = 0.1938 | 955.343 | 1.41819 | 1292.5
298.15 K, x1 = 0.2928 | 1013.5 | 1.43226 | 1358.2
298.15 K, x1 = 0.3902 | 1059.05 | 1.44304 | 1415
298.15 K, x1 = 0.496 | 1099.29 | 1.45252 | 1470.4
298.15 K, x1 = 0.5903 | 1128.61 | 1.45942 | 1514.7
298.15 K, x1 = 0.6902 | 1154.5 | 1.46547 | 1556.5
298.15 K, x1 = 0.7978 | 1177.96 | 1.47086 | 1596.4
298.15 K, x1 = 0.9531 | 1205.6 | 1.47709 | 1642.9
298.15 K, x1 = 1 | 1212.06 | 1.47824 | 1654.6
303.15 K, x1 = 0.0482 | 831.096 | 1.38696 | 1165.3
303.15 K, x1 = 0.0965 | 876.702 | 1.39831 | 1204.4
303.15 K, x1 = 0.1938 | 951.52 | 1.41666 | 1278.2
303.15 K, x1 = 0.2928 | 1009.8 | 1.43067 | 1344.3
303.15 K, x1 = 0.3902 | 1055.42 | 1.44158 | 1401.7
303.15 K, x1 = 0.496 | 1095.74 | 1.45108 | 1457.6
303.15 K, x1 = 0.5903 | 1125.13 | 1.458 | 1502.1
303.15 K, x1 = 0.6902 | 1151.05 | 1.46409 | 1544.2
303.15 K, x1 = 0.7978 | 1174.52 | 1.46948 | 1584.2
303.15 K, x1 = 0.9531 | 1202.22 | 1.47576 | 1630.7
303.15 K, x1 = 1 | 1208.7 | 1.47704 | 1642.2
308.15 K, x1 = 0.0482 | 826.964 | 1.38495 | 1148.9
308.15 K, x1 = 0.0965 | 872.696 | 1.39643 | 1188.9
308.15 K, x1 = 0.1938 | 947.68 | 1.41492 | 1263.7
308.15 K, x1 = 0.2928 | 1006.09 | 1.42902 | 1330.4
308.15 K, x1 = 0.3902 | 1051.78 | 1.44001 | 1388.3
308.15 K, x1 = 0.496 | 1092.2 | 1.44958 | 1444.6
308.15 K, x1 = 0.5903 | 1121.71 | 1.45655 | 1489.5
308.15 K, x1 = 0.6902 | 1147.61 | 1.46268 | 1531.7
308.15 K, x1 = 0.7978 | 1171.15 | 1.4681 | 1571.9
308.15 K, x1 = 0.9531 | 1198.85 | 1.47442 | 1618.5
308.15 K, x1 = 1 | 1205.35 | 1.47577 | 1630
313.15 K, x1 = 0.0482 | 822.774 | 1.38288 | 1132.5
313.15 K, x1 = 0.0965 | 868.646 | 1.3945 | 1173.3
313.15 K, x1 = 0.1938 | 943.827 | 1.41317 | 1249.1
313.15 K, x1 = 0.2928 | 1002.39 | 1.4274 | 1316.5
313.15 K, x1 = 0.3902 | 1048.13 | 1.43845 | 1375
313.15 K, x1 = 0.496 | 1088.68 | 1.44808 | 1431.8
313.15 K, x1 = 0.5903 | 1118.31 | 1.4551 | 1476.9
313.15 K, x1 = 0.6902 | 1144.23 | 1.46125 | 1519.4
313.15 K, x1 = 0.7978 | 1167.77 | 1.46674 | 1559.7
313.15 K, x1 = 0.9531 | 1195.49 | 1.47306 | 1606.4
313.15 K, x1 = 1 | 1202.01 | 1.47443 | 1617.9

CCCCn1cc[n+](C)c1.COS(=O)(=O)[O-] [1-butyl-3-methylimidazolium methyl sulfate] + CCCCO
Conditions | mass density, [1] [kg/m3] | refractive index, [2] | speed of sound, [1] [m/s]
298.15 K, x1 = 0.0425 | 843.506 | 1.40525 | 1261.4
298.15 K, x1 = 0.0922 | 882.293 | 1.41307 | 1285.1
298.15 K, x1 = 0.1929 | 948.953 | 1.42652 | 1333.2
298.15 K, x1 = 0.2926 | 1002.76 | 1.43736 | 1379.5
298.15 K, x1 = 0.3915 | 1047.2 | 1.44629 | 1424.2
298.15 K, x1 = 0.4981 | 1087.51 | 1.45433 | 1471
298.15 K, x1 = 0.5997 | 1120.12 | 1.4608 | 1513.5
298.15 K, x1 = 0.7996 | 1172.03 | 1.47095 | 1589.4
298.15 K, x1 = 1 | 1212.06 | 1.47824 | 1654.6
303.15 K, x1 = 0.0425 | 839.735 | 1.40335 | 1245.6
303.15 K, x1 = 0.0922 | 878.554 | 1.41133 | 1270
303.15 K, x1 = 0.1929 | 945.272 | 1.42489 | 1318.8
303.15 K, x1 = 0.2926 | 999.143 | 1.43578 | 1365.8
303.15 K, x1 = 0.3915 | 1043.64 | 1.44477 | 1411
303.15 K, x1 = 0.4981 | 1084.01 | 1.45286 | 1458.1
303.15 K, x1 = 0.5997 | 1116.66 | 1.45937 | 1500.9
303.15 K, x1 = 0.7996 | 1168.59 | 1.46959 | 1577.1
303.15 K, x1 = 1 | 1208.7 | 1.47704 | 1642.2
308.15 K, x1 = 0.0425 | 835.931 | 1.40141 | 1229.6
308.15 K, x1 = 0.0922 | 874.794 | 1.40946 | 1254.6
308.15 K, x1 = 0.1929 | 941.58 | 1.42315 | 1304.3
308.15 K, x1 = 0.2926 | 995.525 | 1.43415 | 1351.8
308.15 K, x1 = 0.3915 | 1040.09 | 1.44321 | 1397.5
308.15 K, x1 = 0.4981 | 1080.52 | 1.45136 | 1445.1
308.15 K, x1 = 0.5997 | 1113.21 | 1.45792 | 1488.2
308.15 K, x1 = 0.7996 | 1165.14 | 1.46821 | 1564.7
308.15 K, x1 = 1 | 1205.35 | 1.47577 | 1630
313.15 K, x1 = 0.0425 | 832.1 | 1.39946 | 1213.7
313.15 K, x1 = 0.0922 | 871.02 | 1.40762 | 1239.3
313.15 K, x1 = 0.1929 | 937.88 | 1.42144 | 1289.8
313.15 K, x1 = 0.2926 | 991.896 | 1.43253 | 1338
313.15 K, x1 = 0.3915 | 1036.54 | 1.44166 | 1384.2
313.15 K, x1 = 0.4981 | 1077.03 | 1.44987 | 1432.3
313.15 K, x1 = 0.5997 | 1109.78 | 1.45646 | 1475.7
313.15 K, x1 = 0.7996 | 1161.71 | 1.46682 | 1552.6
313.15 K, x1 = 1 | 1202.01 | 1.47443 | 1617.9
